Reference: US12371454B2, “Cyclic peptide compound having Kras inhibitory action” (priority 2019, dated 2025)
Starred links: 1 amine or outer side, 2 acyl side, 3 side chain; linkers in the order of their positions; H or OH if unused. Positions of bridges follow the written chain, without caps; N, C: chain ends. Non-standard residues stand in square brackets, D forms with d. Residues, ends and D or L forms follow the SMILES beside them. *: point of attachment. hPhe(3-Cl-4-CF3) = N[C@@H](CCc1ccc(C(F)(F)F)c(Cl)c1)C(=O)O; hPhe(3-F,4-CF3) = N[C@@H](CCc1ccc(C(F)(F)F)c(F)c1)C(=O)O; hPhe(4-CF3) = N[C@@H](CCc1ccc(C(F)(F)F)cc1)C(=O)O; NEtPhe(4-Me) = CCN[C@@H](Cc1ccc(C)cc1)C(=O)O; NMePhe(4-Cl) = CN[C@@H](Cc1ccc(Cl)cc1)C(=O)O; Phe(3,5-F2) = N[C@@H](Cc1cc(F)cc(F)c1)C(=O)O; NMedβ3hAla = C[C@H](CC(=O)[*:2])N(C)[*:1]; NMeCha = CN[C@@H](CC1CCCCC1)C(=O)O; Hyp = O=C(O)[C@@H]1C[C@@H](O)CN1; NMeChg = CN[C@H](C(=O)O)C1CCCCC1; NMeF = CN[C@@H](Cc1ccccc1)C(=O)O; NMeI = CC[C@H](C)[C@H](NC)C(=O)O; NMeD = CN[C@@H](CC(=O)O)C(=O)O; NMeL = CN[C@@H](CC(C)C)C(=O)O; NMeV = CN[C@H](C(=O)O)C(C)C; d(β3hA) = C[C@@H](N)CC(=O)O; Pip = O=C(O)[C@@H]1CCCCN1; hSer = N[C@@H](CCO)C(=O)O; NMeA = CN[C@@H](C)C(=O)O; Piperidide = C1CCN(*)CC1; Pyrrolidide = C1CCN(*)C1; Ac5c = NC1(C(=O)O)CCCC1; Aze = O=C(O)[C@@H]1CCN1; Abu = CC[C@H](N)C(=O)O; Ac4c = NC1(C(=O)O)CCC1; Aib = CC(C)(N)C(=O)O; Sar = CNCC(=O)O

biological target: T1, Kras and SOS1 (biotin-tagged human Kras loaded with GDP, His-tagged human SOS1) (Homo sapiens, UniProt P01116, G12D); experiment: Protein-protein interaction inhibition between Kras and SOS1 (KrasGl2D-SOS PPI) using AlphaScreen; format: binding; conditions: AlphaScreen; biotin-tagged human Kras loaded with GDP, His-tagged human SOS1; read-out: KRAS G12D-SOS PPI IC50
T1 construct: made in house; host or cells: E. coli (stated for Kras only)
T1 sequence (P01116 1-188 isoform P01116-2 G12D): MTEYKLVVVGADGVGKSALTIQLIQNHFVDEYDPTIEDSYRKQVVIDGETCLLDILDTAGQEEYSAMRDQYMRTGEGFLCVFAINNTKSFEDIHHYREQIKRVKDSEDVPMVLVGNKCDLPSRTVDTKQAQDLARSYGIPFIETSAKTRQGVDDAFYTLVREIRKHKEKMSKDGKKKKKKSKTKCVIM
In short: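 AlphaScreen format: Ni donor beads capture His-SOS1, streptavidin acceptor beads capture biotinylated Kras (E. coli-expressed, GDP-loaded post-purification). Excite 680 nm, read 520-620 nm.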

SMILES	IC50
CC[C@@H]1NC(=O)[C@H](CC(C)C)N(C)C(=O)C[C@@H](C(=O)N2CCCCC2)N(C)C(=O)[C@H](C2CCCCC2)N(C)C(=O)C2(CCCC2)NC(=O)[C@@H]2CCCN2C(=O)[C@H](CCc2ccc(C(F)(F)F)c(Cl)c2)NC(=O)CN(C)C(=O)[C@H](CC2CCCCC2)N(C)C(=O)CN(C)C(=O)CN(C)C1=O [Compound 1775] ([NMeL][Abu][Sar][Sar][NMeCha][Sar][hPhe(3-Cl-4-CF3)]P[Ac5c][NMeChg][NMeD]-Piperidide; lactam N-11)	4 nM
CCO[C@@H]1C[C@H]2C(=O)NC3(CCC3)C(=O)N(C)[C@@H]([C@@H](C)CC)C(=O)N(C)[C@H](C)CC(=O)N(C)[C@@H](CC(C)C)C(=O)N[C@@H]([C@@H](C)CC)C(=O)N(C)[C@@H](C)C(=O)N3CC[C@H]3C(=O)N(CC)[C@@H](Cc3ccc(C)cc3)C(=O)N(C)CC(=O)N[C@@H](CCc3ccc(C(F)(F)F)c(Cl)c3)C(=O)N2C1 [Compound 626] (cyclo([Ac4c][NMeI][NMedβ3hAla][NMeL]I[NMeA][Aze][NEtPhe(4-Me)][Sar][hPhe(3-Cl-4-CF3)][Hyp](Et)))	2.4 nM
CC[C@H](C)[C@@H]1NC(=O)[C@H](C(C)C)N(C)C(=O)C[C@@H](C)NC(=O)[C@H](CC(C)C)N(C)C(=O)C2(CCCC2)NC(=O)[C@H](CC(C)C)N(C)C(=O)[C@H](CCc2ccc(C(F)(F)F)c(F)c2)NC(=O)CN(C)C(=O)[C@H](Cc2ccc(Cl)cc2)N(C)C(=O)[C@@H]2CCN2C(=O)CN(C)C1=O [Compound 418] (cyclo([Ac5c][NMeL][d(β3hA)][NMeV]I[Sar][Aze][NMePhe(4-Cl)][Sar][hPhe(3-F,4-CF3)][NMeL]))	17 nM
CC[C@H](C)[C@@H]1NC(=O)[C@@H]2CCCCN2C(=O)C[C@@H](C)NC(=O)[C@H](CC(C)C)N(C)C(=O)C(C)(C)NC(=O)[C@H](CC(C)C)N(C)C(=O)[C@H](CCc2ccc(C(F)(F)F)cc2)NC(=O)CN(C)C(=O)[C@H](CC2CCCCC2)N(C)C(=O)CN(C)C(=O)CN(C)C1=O [Compound 31] (cyclo([Aib][NMeL][d(β3hA)][Pip]I[Sar][Sar][NMeCha][Sar][hPhe(4-CF3)][NMeL]))	380 nM
CC[C@H](C)[C@@H]1NC(=O)[C@@H]2CCCCN2C(=O)C[C@@H](C)NC(=O)[C@H](CC(C)C)N(C)C(=O)C(C)(C)NC(=O)[C@H](CC(C)C)N(C)C(=O)[C@H](CCc2ccc(C(F)(F)F)cc2)NC(=O)CN(C)C(=O)[C@H](Cc2ccc(Cl)cc2)N(C)C(=O)CN(C)C(=O)CN(C)C1=O [Compound 286] (cyclo([Aib][NMeL][d(β3hA)][Pip]I[Sar][Sar][NMePhe(4-Cl)][Sar][hPhe(4-CF3)][NMeL]))	96 nM
CC[C@H](C)[C@@H]1NC(=O)[C@@H]2CCCCN2C(=O)C[C@@H](C)NC(=O)[C@H](C(C)C)N(C)C(=O)[C@H](Cc2ccccc2)N(C)C(=O)[C@H](CC(C)C)N(C)C(=O)[C@H](CCc2ccc(C(F)(F)F)cc2)NC(=O)CN(C)C(=O)[C@H](Cc2ccc(Cl)cc2)N(C)C(=O)CN(C)C(=O)CN(C)C1=O [Compound 1110] (cyclo(I[Sar][Sar][NMePhe(4-Cl)][Sar][hPhe(4-CF3)][NMeL][NMeF][NMeV][d(β3hA)][Pip]))	130 nM
COCC[C@@H]1NC(=O)[C@H](CC(C)C)N(C)C(=O)C[C@@H](C(=O)N2CCCCC2)N(C)C(=O)[C@H](C2CCCCC2)N(C)C(=O)C2(CCCC2)NC(=O)[C@@H]2CCCN2C(=O)[C@H](CCc2ccc(C(F)(F)F)c(Cl)c2)NC(=O)CN(C)C(=O)[C@H](CC2CCCCC2)N(C)C(=O)CN(C)C(=O)CN(C)C1=O [Compound 941] ([NMeL][hSer](Me)[Sar][Sar][NMeCha][Sar][hPhe(3-Cl-4-CF3)]P[Ac5c][NMeChg][NMeD]-Piperidide; lactam N-11)	3.3 nM
CC[C@H](C)[C@@H]1NC(=O)[C@H](C)N(C)C(=O)C[C@@H](C(=O)N2CCCC2)NC(=O)[C@H](C(C)C)N(C)C(=O)[C@H](Cc2ccccc2)N(C)C(=O)[C@H](Cc2ccccc2)NC(=O)[C@H](Cc2cc(F)cc(F)c2)NC(=O)CN(C)C(=O)[C@H](Cc2ccc(Cl)cc2)N(C)C(=O)CN(C)C(=O)CN(C)C1=O [Compound 21] ([NMeA]I[Sar][Sar][NMePhe(4-Cl)][Sar][Phe(3,5-F2)]F[NMeF][NMeV]D-Pyrrolidide; lactam N-11)	250 nM
CC[C@H](C)[C@@H]1NC(=O)[C@H](C)N(C)C(=O)C[C@@H](C(=O)N2CCCCC2)N(C)C(=O)[C@H](C(C)C)N(C)C(=O)C2(CCCC2)NC(=O)[C@@H]2CCCN2C(=O)[C@H](CCc2ccc(C(F)(F)F)c(Cl)c2)NC(=O)CN(C)C(=O)[C@H](CC2CCCCC2)N(C)C(=O)[C@@H]2CCN2C(=O)[C@H](CC2CCCCC2)N(C)C1=O [Compound 1580] ([NMeA]I[NMeCha][Aze][NMeCha][Sar][hPhe(3-Cl-4-CF3)]P[Ac5c][NMeV][NMeD]-Piperidide; lactam N-11)	11 nM
